The values that follow come from ChEMBL document CHEMBL5727951, “Substituted benzamides and methods of use thereof” (2020).

The nature of the assay: Tritiated Sulfonamide Binding to Membranes: isolated from cells that heterologously express hNav1.7 and the β1 subunit Preparation of membranes containing recombinantly expressed sodium channels: Frozen recombinant cell pellets were thawed on ice and diluted to 4 times the cell pellet weight with ice cold 50 mM Tris HCl, pH 7.4 buffer. The cell suspensions were homogenized on ice using a motorized glass dounce homogeniser. Homogenates were further diluted 8.4 times with ice cold 50 mM Tris HCl, pH 7.4 buffer and then centrifuged at 200×g at 4° C. for 15 min. The supernatants were collected and centrifuged at 10000×g at 4° C. for 50 min. The pellets were then re-suspended in 100 mM NaCl, 20 mM Tris HCl, pH 7.4 buffer containing 1% v/v protease inhibitors (Calbiochem) and re-homogenized on ice. The homogenized membranes were then processed through a syringe equipped with a 26 gauge needle. Protein concentrations were determined by Bradford Assay and the membranes were stored at −80° C.Radioligand Binding Studies:Saturation experiments. A representative compound of formula (I) having a methyl group was tritiated. Three tritiums were incorporated in place of methyl hydrogens to generate [3H]compound. Binding of this radioligand was preformed in 5 mL borosilicate glass test tubes at room temperature. Binding was initiated by adding membranes to increasing concentrations of [3H]compound in 100 mM NaCl, 20 mM Tris HCl, pH 7.4 buffer containing 0.01% w/v bovine serum albumin (BSA) for 18 h. Non-specific binding was determined in the presence of 1 μM unlabelled compound. After 18 h, the reactants were filtered through GF/C glass fiber filters presoaked in 0.5% w/v polyethylene imine. Filters were washed with 15 mL ice cold 100 mM NaCl, 20 mM Tris HCl, pH7.4 buffer containing 0.25% BSA to separate bound from free ligand. [3H]compound bound to filters was quantified by liquid scintillation counting.Competitive Binding Experiments:Binding reactions were preformed in 96-well polypropylene plates at room temperature for 18 h. In 360 μL, membranes were incubated with 100 pM [3H]compound and increasing concentrations of Test Compound. Non-specific binding was defined in the presence of 1 μM unlabelled compound. Reactions were transferred and filtered through 96-well glass fiber/C filter plates presoaked with 0.5% polyethylene imine. The filtered reactions were washed 5 times with 200 μL ice cold buffer containing 0.25% BSA. Bound radioactivity was determined by liquid scintillation counting.Data Analysis: For saturation experiments, non-specific binding was subtracted from total binding to provide specific binding and these values were recalculated in terms of pmol ligand bound per mg protein. Saturation curves were constructed and dissociation constants were calculated using the single site ligand binding model: Beq=(Bmax*X)/(X+Kd), where Beq is the amount of ligand bound at equilibrium, Bmax is the maximum receptor density, Kd is the dissociation constant for the ligand, and X is the free ligand concentration. For competition studies percent inhibition was determined and IC50 values were calculated using a 4 parameter logistic model (% inhibition=(A+((B−A)/(1+((x/C)^D)))) using XLfit, where A and B are the maximal and minimum inhibition respectively, C is the IC50 concentration and D is the (Hill) slope.

Usually IC50 stands for the concentration that gives 50% inhibition. `CC(C)Oc1ncc(Oc2cc(F)c(C(=O)NS(=N)(=O)C3CC3)cc2Cl)cc1Cl` (centres undefined): the IC50 was 18.1 nM. With `N=S(=O)(NC(=O)c1cc(F)c(Oc2ccc(OC(F)(F)F)c(Cl)c2)cc1F)C1CC1` (centres undefined), the IC50 was 238 nM. To `N=S(=O)(NC(=O)c1cc(C2CC2)c(O[C@@H]2CCCN(Cc3c(Cl)cccc3Cl)C2)cc1F)C1CC1` (some centres undefined) belongs 2290 nM; to `COc1cc(C(=O)NS(=N)(=O)C2CC2)c(F)cc1OCC12CC3CC(CC(C3)C1)C2` (centres undefined), 210 nM; to `N=S(=O)(NC(=O)c1cc(C2CC2)c(COc2cc(F)cc(C(F)(F)F)c2)cc1F)C1CC1` (centres undefined), 14.2 nM. On to `N=S(=O)(NC(=O)c1cc(C2CC2)c(OCC23CC4CC(CC(C4)C2)C3)cc1F)N1CCC1` (centres undefined), for which the IC50 was 80.9 nM. `C[C@@H](c1cc(Cl)cc(Cl)c1)N1CCC(COc2cc(F)c(C(=O)NS(=N)(=O)C3CC3)cc2C2CC2)CC1` (some centres undefined): the IC50 was 92.5 nM.

`N=S(=O)(NC(=O)c1cc(Cl)c(Oc2cnc(OCC(F)(F)C(F)F)c(Cl)c2)cc1F)N1CCC1` (centres undefined): the IC50 was 159 nM. As to `N=S(=O)(NC(=O)c1cc(C2CC2)c(OCC2(F)CCN(Cc3cc(C(F)(F)F)cc(Cl)c3F)CC2)cc1F)C1CC1` (centres undefined), the IC50 is 182 nM. To `C[C@@H](c1cc(Cl)cc(Cl)c1)N1CCC(COc2ccc(C(=O)NS(=N)(=O)C3CC3)cc2C2CC2)CC1` (some centres undefined) belongs 616 nM; to `COc1ncccc1-c1cc(C(=O)NS(=N)(=O)C2CC2)c(F)cc1Oc1cnc(OC(C)C)c(Cl)c1` (centres undefined), 19.8 nM. Then `N=S(=O)(NC(=O)c1cc(Cl)c(Oc2cnc(OCC(F)(F)C(F)F)c(Cl)c2)cc1F)C1CC1` (centres undefined), with 23.8 nM; and `N=S(=O)(NC(=O)c1cc(Cl)c(Oc2cnc(OCC(F)(F)F)c(Cl)c2)cc1F)C1CC1` (centres undefined), with 23.6 nM; and `N=S(=O)(NC(=O)c1cc(C2CC2)c(COc2cc(Cl)cc(OC(F)(F)F)c2)cc1F)C1CC1` (centres undefined), with 8.67 nM.
